Measurements taken from paper PMC9916951, “Enzyme Inhibition-Based Assay to Estimate the Contribution of Formulants to the Effect of Commercial Pesticide Formulations” (International Journal of Molecular Sciences, 2023).
Read-outs that look alike come from different tables or passages of the source.

Legend:
trypsin = molecular target: T1, trypsin (Sus scrofa, UniProt P00761); assay: Single-enzyme assay system, trypsin activity (absorbance 253 nm); assay type: biochemical, porcine
T1 construct: purchased Sigma-Aldrich; host or cells: porcine pancreas
T1 sequence (P00761 9-231): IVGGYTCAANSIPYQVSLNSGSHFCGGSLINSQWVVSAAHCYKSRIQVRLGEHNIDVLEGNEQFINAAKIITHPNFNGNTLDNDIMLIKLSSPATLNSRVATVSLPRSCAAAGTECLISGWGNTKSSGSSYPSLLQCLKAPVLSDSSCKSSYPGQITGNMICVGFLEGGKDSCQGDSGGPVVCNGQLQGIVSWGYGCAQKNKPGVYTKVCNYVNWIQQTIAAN
Experimental: (§1) The activities of enzyme assay systems were determined by measuring the absorbance of reaction mixture solutions or bioluminescence intensity in the solutions of the analyzed pesticide active ingredients or in the control solution.
Trypsin activity was analyzed in the reaction mixture containing 490 μL of the 0.1 M Clark and Lubs buffer pH 7.6, 11 mU of trypsin, 40 μL of 1 mM hydrochloric acid, and 460 μL of the 0.5 mM BAEE solution. The absorbances of the solutions were measured at 253 nm.
(§2) The effects of the active ingredients of pesticide and the solvents on the activity of the enzymes in the single-enzyme assay systems were determined as the relative activity according to the formula A = (At/Ac)∙100%, where Ac and At are the enzyme activity in the control and in the analyte solution, respectively.
(§3) The parameter IC50 was used to estimate the inhibitory effect of the active ingredients of pesticides on the enzyme activity and the bioluminescence intensity of a multi-enzyme assay system. It is the concentration of the active ingredient decreasing the enzyme activity by 50%.

[1] = molecular target: T2, lactate dehydrogenase (LDH) (Oryctolagus cuniculus, UniProt P13491); assay: Single-enzyme assay system, LDH activity (absorbance 340 nm); assay type: biochemical, rabbit
T2 construct: purchased Sigma-Aldrich; host or cells: rabbit muscle
Experimental: as §1
(§4) The activities of single-enzyme assay systems with Red, ADH, and LDH were determined by changes in the absorbance at 340 nm.
The reaction mixture for the LDH-catalyzed reaction comprised 850 μL of the 0.05 M potassium-phosphate buffer pH 8.0, 9 U of LDH, 40 μL of the 3.25 mM NADH solution, 30 μL of the 69 mM pyruvate solution, and 50 μL of the analyte solution or the solvent solution (control).
as §2, §3

[2] = molecular target: T3, alcohol dehydrogenase (ADH) (Saccharomyces cerevisiae, UniProt P00330); assay: Single-enzyme assay system, ADH activity (absorbance 340 nm); assay type: biochemical, baker's yeast
T3 construct: purchased Sigma-Aldrich; host or cells: baker’s yeast
T3 sequence (P00330 whole entry): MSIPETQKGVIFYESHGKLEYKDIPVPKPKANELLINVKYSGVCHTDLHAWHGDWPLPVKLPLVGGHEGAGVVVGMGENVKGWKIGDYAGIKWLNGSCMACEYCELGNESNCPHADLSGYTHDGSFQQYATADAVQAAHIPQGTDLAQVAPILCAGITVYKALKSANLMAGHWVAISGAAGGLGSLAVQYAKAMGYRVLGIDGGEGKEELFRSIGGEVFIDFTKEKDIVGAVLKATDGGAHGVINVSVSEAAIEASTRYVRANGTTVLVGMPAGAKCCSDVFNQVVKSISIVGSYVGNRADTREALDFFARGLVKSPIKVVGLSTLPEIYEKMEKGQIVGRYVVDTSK
Experimental: as §1, §4
The activity of the ADH was estimated by using the following reaction mixture: 1500 μL of the potassium-phosphate buffer 0.05 M pH 7.85, 750 mU of ADH, 40 μL of the 2.4 mM NAD^+ solution, and 25 μL of 95% ethanol. Distilled water and acetonitrile were used as control solutions.
as §2, §3

[3] = molecular target: NAD(P)H:FMN-oxidoreductase + luciferase (Red + Luc); assay: Coupled enzyme assay system Red + Luc, luminescence intensity; assay type: biochemical, Vibrio fischeri; Photobacterium leiognathi; settings: active ingredient alone (AIa)
Experimental: (§5) The activities of the multi-enzyme assay systems were determined from the values of the luminescence intensity in the presence of the control or the analyte solutions.
To analyze the effect of pesticides on the luminescence intensity of the Red + Luc coupled enzyme assay system, we used the following reaction mixture: 290 μL of the 0.05 M potassium-phosphate buffer pH 6.8; 5 μL of the Red + Luc mixture, preliminarily diluted in 5 mL of the buffer solution; 50 μL of the 0.0025% tetradecanal solution; 50 μL of the 0.5 mM FMN solution; 100 μL of the 0.4 mM NADH solution; and 10–200 μL of the analyte solution or the solvent solution used as a control. Ratio of Red to Luc in the reaction mixture was 1.2:1; and their concentrations were about 15 and 13 nM, respectively.
(§6) The effect of the pesticide active ingredients and solvents on the multi-enzyme reactions was estimated from the residual luminescence intensity calculated according to the formula I = (It/Ic)∙100%, where Ic and It are the average values of luminescence intensity in the presence of the control or analyte solution, respectively.
as §3

[4] = molecular target: alcohol dehydrogenase + NAD(P)H:FMN-oxidoreductase + luciferase (ADH + Red + Luc); assay: Three-enzyme assay system ADH + Red + Luc, luminescence intensity; assay type: biochemical, baker's yeast; Vibrio fischeri; Photobacterium leiognathi; settings: active ingredient alone (AIa)
Experimental: as §5
An analysis of the activity of the ADH + Red + Luc three-enzyme assay system was performed using the reaction mixture containing 350 μL of the 0.05 M potassium-phosphate buffer pH 6.9; 5 μL of 0.5 mg/mL ADH; 5 μL of the Red + Luc solution, preliminarily diluted in 5 mL of the buffer solution; 50 μL of the 0.0025% tetradecanal solution; 100 μL of the 0.4 mM NAD^+ solution; 10 μL of the 0.5 mM FMN solution; 5 μL of 95% ethanol; and 10–100 μL of the solvent (control) or the analyte solution. The proportions of ADH, Red, and Luc in the reaction mixture were 10:1.2:1, and their concentrations were about 120, 14, and 12 nM, respectively.
as §6, §3

[5] = molecular target: lactate dehydrogenase + NAD(P)H:FMN-oxidoreductase + luciferase (LDH + Red + Luc); assay: Three-enzyme assay system LDH + Red + Luc, luminescence intensity; assay type: biochemical, rabbit; Vibrio fischeri; Photobacterium leiognathi; settings: active ingredient alone (AIa)
Experimental: as §5
The reaction mixture for analyzing the luminescence intensity of the LDH + Red + Luc three-enzyme assay system consisted of 5 μL of 0.5 mg/mL LDH; 300 μL of the 0.05 M potassium-phosphate buffer pH 7.1; 10 μL of the 15 mM lactate solution; 50 μL of the 0.0025% tetradecanal solution; 10 μL of the Red + Luc solution, preliminarily diluted in 5 mL of the buffer solution; 10 μL of the 0.5 mM FMN solution; 100 μL of the 0.5 mM NAD^+ solution; and 10–50 μL of the analyte solution or the solvent solution (control). The proportions of LDH, Red, and Luc in the reaction mixture were 1.4:1.2:1, and their concentrations were about 36, 31, and 26 nM, respectively.
as §6, §3

[6] = molecular target: T4, butyrylcholinesterase (BChE) (Equus caballus, UniProt P81908); assay: Single-enzyme assay system, BChE activity (Ellman's method, 412 nm); assay type: biochemical, equine
T4 construct: purchased Sigma-Aldrich; host or cells: equine serum
T4 sequence (P81908 whole entry): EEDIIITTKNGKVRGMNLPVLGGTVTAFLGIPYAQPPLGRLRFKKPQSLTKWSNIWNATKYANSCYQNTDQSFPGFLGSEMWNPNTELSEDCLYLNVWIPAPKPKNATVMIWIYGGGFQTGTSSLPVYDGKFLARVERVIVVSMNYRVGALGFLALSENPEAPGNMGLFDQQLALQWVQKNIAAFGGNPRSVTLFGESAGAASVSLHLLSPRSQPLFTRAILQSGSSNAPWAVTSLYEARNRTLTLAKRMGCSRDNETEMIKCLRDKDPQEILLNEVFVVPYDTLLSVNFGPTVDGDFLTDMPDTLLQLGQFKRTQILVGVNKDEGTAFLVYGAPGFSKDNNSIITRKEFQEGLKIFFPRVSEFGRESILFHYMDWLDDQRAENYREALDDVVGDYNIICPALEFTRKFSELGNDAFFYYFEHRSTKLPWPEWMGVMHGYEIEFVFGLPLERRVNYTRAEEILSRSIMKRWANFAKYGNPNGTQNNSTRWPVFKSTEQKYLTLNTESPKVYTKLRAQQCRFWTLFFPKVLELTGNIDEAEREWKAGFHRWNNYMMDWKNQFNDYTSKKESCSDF
Experimental: as §1
To analyze BChE activity Ellman’s method was used. The absorbance of the solutions was measured at the 412 nm. We used the following reaction mixture: 800–850 μL of the 0.05 M potassium-phosphate buffer pH 8.0, 70 mU of BChE, 60 μL of 0.2 mM 5,5′-dithiobis (2-nitrobenzoic acid), 60 μL of 0.2 mM S-BCh-I, and 50–100 μL of the analyte solution or the solvent solution used as control.
as §2, §3

[7] = maximum residual levels of the active ingredient, Russian Federation; cited from earlier work
[8] = molecular target: alkaline phosphatase (ALP) (Bos taurus, UniProt P19111); assay: Single-enzyme assay system, ALP activity (absorbance 405 nm); assay type: biochemical, bovine; settings: 13.5 mg/L of fenvalerate (AIa)
Sequence of alkaline phosphatase (ALP) (P19111 20-506): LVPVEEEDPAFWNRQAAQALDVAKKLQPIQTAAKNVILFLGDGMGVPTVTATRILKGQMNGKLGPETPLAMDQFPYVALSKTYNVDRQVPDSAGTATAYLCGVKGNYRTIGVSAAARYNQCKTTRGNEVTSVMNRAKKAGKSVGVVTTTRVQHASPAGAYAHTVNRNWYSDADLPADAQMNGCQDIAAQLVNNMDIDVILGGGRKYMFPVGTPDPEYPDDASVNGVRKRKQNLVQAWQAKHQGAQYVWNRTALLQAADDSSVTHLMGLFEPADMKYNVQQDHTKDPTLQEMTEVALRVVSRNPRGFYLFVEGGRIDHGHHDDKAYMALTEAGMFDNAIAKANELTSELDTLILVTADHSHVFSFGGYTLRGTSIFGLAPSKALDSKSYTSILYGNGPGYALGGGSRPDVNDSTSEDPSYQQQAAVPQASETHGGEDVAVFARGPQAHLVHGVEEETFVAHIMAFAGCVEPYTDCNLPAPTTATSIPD
Experimental: as §1
The activity of the ALP was analyzed in the following reaction mixture: 990 μL of the glycine NaOH buffer pH 9.6 containing 0.5 mM MgCl2, 1.2 mU of the ALP solution, 8 μL of the 33 mM […] solution, and 30–50 μL of the analyte solution. The absorbance of the solutions was measured at 405 nm.
as §2, §3

[9] = molecular target: NAD(P)H:FMN-oxidoreductase (Red); assay: Single-enzyme assay system, Red activity (absorbance 340 nm); assay type: biochemical, Vibrio fischeri; settings: active ingredient alone (AIa)
Experimental: as §1, §4
The reaction mixture for the Red-catalyzed reaction consisted of 750 μL of the 0.05 M potassium-phosphate buffer pH 7.25, 6 mU of Red, 100 μL of the 0.4 mM NADH solution, 10 μL of the 0.5 mM FMN solution, and 5–100 μL of the analyte solution or the solvent (control).
as §2, §3

[10] = system: Photobacterium phosphoreum; assay: Bioluminescence of luminous bacterium P. phosphoreum; assay type: cell-based
Experimental: Bacterium P. phosphoreum 1889 was provided by the museum at the IBP SB RAS [68]. P. phosphoreum cells were grown for 24 h on solid medium for marine bacteria. The cells were suspended in the sodium-phosphate buffer pH 7.4.
The effects of active ingredients of pesticides on the luminous bacterium were determined by changes in the bacterial luminescence intensity in the presence of the analyte relative to the control value. The solvent was used as a control solution. The reaction mixture for analyzing the luminescence intensity of luminous bacterium in the presence of control solution contained 450 μL of bacterial suspension and 5 μL of ethanol or 50 μL of distilled water, used as solvents for active ingredients of pesticides. A cuvette with the reaction mixture was placed into a luminometer, and luminescence intensity (Ic) was measured after 1 min. Then, another aliquot of bacterial suspension and 5 or 50 μL of a pesticide active ingredient solution were placed into a luminometer cuvette, and luminescence intensity (It) was measured after 1 min. The residual luminescence intensity was determined according to the formula I = (It/Ic) ∙ 100%.
The parameter EC50 was used to estimate the inhibitory effect of the active ingredients of pesticides on the bioluminescence of P. phosphoreum. […]

[11] = active ingredient alone (AIa), read-out: IC50, LDH (converted)
[12] = active ingredient alone (AIa), read-out: IC50, ADH (converted)
[13] = active ingredient alone (AIa), read-out: IC50, BChE (converted)

## CC1(C)C(C=C(Cl)Cl)C1C(=O)OC(C#N)c1cccc(Oc2ccccc2)c1 (stereo not shown) [Cypermethrin, cypermethrin]
trypsin; active ingredient alone (AIa)
  IC50, Trypsin: No inhibitory effects
[1]; [11]
  IC50: 60.1 µM
[2]; [12]
  IC50: 0.48 µM
[3]
  IC50, Red + Luc: 1.8 mg/L
[4]
  IC50, ADH + Red + Luc: 0.2 mg/L
[5]
  IC50, LDH + Red + Luc: 6.5 mg/L

## CC1(C)[C@H](C(=O)O[C@H](C#N)c2cccc(Oc3ccccc3)c2)[C@@H]1C=C(Br)Br [Deltamethrin, deltamethrin]
[6]; [13]
  IC50: 198 µM
[1]; [11]
  IC50: 59.4 µM
[2]; [12]
  IC50: 20.6 µM
[3]
  IC50, Red + Luc: 3.7 mg/L
[4]
  IC50, ADH + Red + Luc: 1.0 mg/L
[5]
  IC50, LDH + Red + Luc: 7.7 mg/L
[7]
  MRL RUS: 0.01 to 0.3 mg/kg

## CCOP(=S)(OCC)Oc1cc(C)nc(C(C)C)n1 [Diazinon, diazinon]
[1]; active ingredient alone (AIa)
  IC50, LDH: No inhibitory effects
[2]
  IC50: 47.6 µM
[3]
  IC50, Red + Luc: 2234 mg/L
[4]
  IC50, ADH + Red + Luc: 11 mg/L
[5]
  IC50, LDH + Red + Luc: 3351 mg/L
[7]
  MRL RUS: 0.1 to 0.5 mg/kg

## CC(C)C(C(=O)OC(C#N)c1cccc(Oc2ccccc2)c1)c1ccc(Cl)cc1 (stereo not shown) [Fenvalerate, fenvalerate]
trypsin; 10 mg/L of fenvalerate (AIa)
  increase in trypsin activity: 28%
[8]
  increase in ALP activity: 26%
[6]; [13]
  IC50: 286 µM
[1]; [11]
  IC50: 7.14 µM
[2]; active ingredient alone (AIa)
  IC50, ADH: No inhibitory effects
[3]
  IC50, Red + Luc: 4.8 mg/L
[4]
  IC50, ADH + Red + Luc: 1.6 mg/L
[5]
  IC50, LDH + Red + Luc: 31.7 mg/L

## O=C(O)CNCP(=O)(O)O [Glyphosate, glyphosate]
trypsin; active ingredient alone (AIa), read-out: IC50, Trypsin (converted)
  IC50: 5.69 mM
trypsin; glyphosate as AIa, read-out: IC50, trypsin (Figure 2 legend) (converted)
  IC50: 5.68 mM
[6]; [13]
  IC50: 207 µM
[1]; active ingredient alone (AIa)
  IC50, LDH: no 50% inhibition
[2]; [12]
  IC50: 30400 µM
[9]
  IC50, Red: no 50% inhibition
[3]
  IC50, Red + Luc: 288 mg/L
  concentration giving 50% inhibition of Red + Luc activity: 0.3 g/L
[4]
  IC50, ADH + Red + Luc: 3200 mg/L
[5]
  IC50, LDH + Red + Luc: 935 mg/L

## O=[N+]([O-])NC1=NCCN1Cc1ccc(Cl)nc1 [Imidacloprid, imidacloprid]
[3]
  IC50, Red + Luc: – (No inhibitory effect of the AIa and AIf was detected in the tested concentration range.)
[4]
  IC50, ADH + Red + Luc: – (No inhibitory effect of the AIa and AIf was detected in the tested concentration range.)
[5]
  IC50, LDH + Red + Luc: – (No inhibitory effect of the AIa and AIf was detected in the tested concentration range.)
[10]; active ingredient alone (AIa), luminescence after 1 min
  EC50, P. phosphoreum bioluminescence: did not produce any detectable effect
[10]; imidacloprid as AIa and as AIf
  EC20 (20% quenching of bacterial bioluminescence): 50 mg/L
[7]
  MRL RUS: 0.1 to 1.0 mg/kg

## CCOC(=O)CC(SP(=S)(OC)OC)C(=O)OCC (stereo not shown) [Malathion, malathion]
[6]
  IC50: 1820 µM
[1]
  IC50: 1060 µM
[7]
  MRL RUS: 0.05 to 1.0 mg/kg
